Target: T1, Alpha-1A/Alpha-1B/Alpha-1D adrenergic receptor (Rattus norvegicus, UniProt P15823+P43140+P23944)
T1 sequence (P15823 whole entry): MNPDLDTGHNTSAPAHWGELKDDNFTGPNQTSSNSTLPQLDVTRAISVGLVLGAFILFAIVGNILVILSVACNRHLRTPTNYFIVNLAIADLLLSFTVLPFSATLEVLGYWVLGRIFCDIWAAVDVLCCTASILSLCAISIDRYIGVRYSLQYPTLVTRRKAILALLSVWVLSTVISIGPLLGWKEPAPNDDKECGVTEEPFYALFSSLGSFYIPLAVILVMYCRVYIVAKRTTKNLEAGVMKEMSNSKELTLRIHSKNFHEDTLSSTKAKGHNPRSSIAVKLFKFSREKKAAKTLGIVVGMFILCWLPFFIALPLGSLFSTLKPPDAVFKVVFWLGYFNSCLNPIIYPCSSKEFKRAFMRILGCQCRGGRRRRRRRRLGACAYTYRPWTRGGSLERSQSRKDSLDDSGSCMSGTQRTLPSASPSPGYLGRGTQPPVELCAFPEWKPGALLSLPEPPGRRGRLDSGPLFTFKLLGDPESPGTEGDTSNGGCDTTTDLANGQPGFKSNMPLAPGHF
T1 sequence (P43140 whole entry): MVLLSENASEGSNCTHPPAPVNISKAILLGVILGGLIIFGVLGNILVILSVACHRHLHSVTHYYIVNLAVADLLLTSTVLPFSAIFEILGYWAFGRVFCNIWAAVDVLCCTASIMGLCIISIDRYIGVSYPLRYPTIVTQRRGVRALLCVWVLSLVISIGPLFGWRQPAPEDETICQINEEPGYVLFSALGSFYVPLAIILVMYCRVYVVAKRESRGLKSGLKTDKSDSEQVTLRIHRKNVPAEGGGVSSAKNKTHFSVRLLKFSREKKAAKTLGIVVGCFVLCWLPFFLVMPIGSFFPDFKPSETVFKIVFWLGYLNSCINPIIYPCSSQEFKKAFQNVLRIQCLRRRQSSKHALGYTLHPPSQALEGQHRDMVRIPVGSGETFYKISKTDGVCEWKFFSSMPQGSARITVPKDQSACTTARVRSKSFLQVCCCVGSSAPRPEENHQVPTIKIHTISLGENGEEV
T1 sequence (P23944 whole entry): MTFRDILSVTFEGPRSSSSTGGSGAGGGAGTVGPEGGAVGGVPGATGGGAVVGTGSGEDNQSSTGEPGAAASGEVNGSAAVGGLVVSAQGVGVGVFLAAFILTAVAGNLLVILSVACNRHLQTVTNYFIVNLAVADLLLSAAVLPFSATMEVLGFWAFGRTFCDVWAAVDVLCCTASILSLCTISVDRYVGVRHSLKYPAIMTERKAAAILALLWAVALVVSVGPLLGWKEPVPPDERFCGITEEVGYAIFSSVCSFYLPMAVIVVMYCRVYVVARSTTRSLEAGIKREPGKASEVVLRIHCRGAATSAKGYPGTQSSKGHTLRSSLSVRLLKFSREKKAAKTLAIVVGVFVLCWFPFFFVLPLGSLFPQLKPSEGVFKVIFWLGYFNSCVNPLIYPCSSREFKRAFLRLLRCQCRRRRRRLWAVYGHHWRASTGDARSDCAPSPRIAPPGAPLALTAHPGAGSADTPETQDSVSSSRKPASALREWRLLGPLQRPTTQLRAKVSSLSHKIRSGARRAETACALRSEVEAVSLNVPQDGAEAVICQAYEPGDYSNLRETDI
Assay: Binding affinity towards Alpha-1 adrenergic receptor in rat cerebral cortex membranes using [3H]prazosin as radioligand

For `O=c1n(CN2CCN(c3cccc4ccccc34)CC2)c(O)c2n1CCC2` [2-(4-Naphthalen-1-yl-piperazin-1-ylmethyl)-tetrahydro-pyrrolo[1,2-c]imidazole-1,3-dione], the Ki was over 1000 nM.
